Results published in US9169217B2, “Arylalkyl esters of 4-amino-6-(substituted phenyl)-picolinates and 6-amino-2-(substituted phenyl)-pyrimidinecarboxylates and their use as selective herbicides for crops” (Dow AgroSciences LLC, priority 2011, dated 2015).

How the values were obtained:
[1] = test system: Scirpus juncoides ROXB. (Japanese bulrush); assay: In-water applied herbicidal activity in transplanted paddy rice (Example 17); assay type: in vivo; details: Schoenoplectiella juncoides, 504 h; rice cropping systems, in-water applied (paddy), 35 g ae/ha, 21 DAA; may represent multiple trials; read-out: Visual Injury (%) SCPJU
Method in brief: (§1)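 Ester forms of test compounds, in acetone diluted with aqueous Agri-dex (final 1.25% v/v crop oil concentrate), were injected into the flood water of paddy pots holding weeds or rice at the 2nd–3rd leaf stage in mud (pH ~7.3–7.8). Visual injury versus untreated plants was scored 0–100% after 3 weeks in greenhouse (~29/26 °C). GR50/GR80 were derived by probit analysis.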

[2] = test system: Echinochloa crus-galli (L.) P.BEAUV. (barnyardgrass); assay: as above; assay type: in vivo; details: Echinochloa crus-galli, 504 h; rice cropping systems, in-water applied (paddy), 35 g ae/ha, 21 DAA; may represent multiple trials; read-out: Visual Injury (%) ECHCG
Method in brief: as §1

[3] = test system: Echinochloa colonum (L.) LINK (junglerice); assay: Postemergence foliar-applied herbicidal activity in direct seeded rice (Example 16); assay type: in vivo; details: Echinochloa colona, post-emergence, 504 h, rice cropping systems, 17.5 g ae/ha, 21 DAA, may represent multiple trials, read-out: Visual Injury (%) ECHCO
Method in brief: (§2)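 Greenhouse plants at 2nd–3rd true leaf stage (10–17 d, ~29/26 °C, 14-h photoperiod) sprayed postemergence with ester forms in acetone–DMSO plus 1.25% crop oil concentrate at 187 L/ha. Visual injury scored 0–100% versus untreated plants after 3 weeks; GR50/GR80 derived by probit analysis.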

[4] = test system: Scirpus juncoides ROXB. (Japanese bulrush); assay: as above; assay type: in vivo; details: Schoenoplectiella juncoides, post-emergence, 504 h; rice cropping systems, foliar-applied, 17.5 g ae/ha, 21 DAA; may represent multiple trials; read-out: Visual Injury (%) SCPJU
Method in brief: as §2

[5] = test system: Aeschynomene sensitive SW./L. (sensitive jointvetch); assay: as above; assay type: in vivo; details: rice cropping systems, 17.5 g ae/ha, 21 DAA, may represent multiple trials
Method in brief: as §2

[6] = test system: Cyperus esculentus L. (yellow nutsedge); assay: as above; assay type: in vivo; details: rice cropping systems, 17.5 g ae/ha, 21 DAA, may represent multiple trials
Method in brief: as §2

[7] = test system: Echinochloa crus-galli (L.) P.BEAUV. (barnyardgrass); assay: as above; assay type: in vivo; details: rice cropping systems, 17.5 g ae/ha, 21 DAA, may represent multiple trials
Method in brief: as §2

[8] = test system: Sesbania exaltata (RAF.) CORY/RYDB. (hemp sesbania); assay: as above; assay type: in vivo; details: rice cropping systems, 17.5 g ae/ha, 21 DAA, may represent multiple trials
Method in brief: as §2

[9] = test system: Cyperus iria L. (rice flatsedge); assay: as above; assay type: in vivo; details: rice cropping systems, 17.5 g ae/ha, 21 DAA, may represent multiple trials
Method in brief: as §2

[10] = test system: Matricaria chamomilla (Mayweed, wild); assay: Postemergence herbicidal activity in cereal crops (Example 14); assay type: in vivo; details: wheat cropping systems, postemergence spray, 35 g ae/ha, 21 DAA
Description: (§3) Seeds of the desired test plant species were planted in Sun Gro Metro-Mix® 360 planting mixture, which typically has a pH of 6.0 to 6.8 and an organic matter content of about 30 percent, in plastic pots with a surface area of 84.6 cm^2. When required to ensure good germination and healthy plants, a fungicide treatment and/or other chemical or physical treatment was applied. The plants were grown for 7-36 d in a greenhouse with an approximate 14 h photoperiod which was maintained at about 18° C. during the day and 17° C. during the night. Nutrients and water were added on a regular basis and supplemental lighting was provided with overhead metal halide 1000-Watt lamps as necessary. The plants were employed for testing when they reached the second or third true leaf stage.
(§4) Treatments consisted of esters of compounds 33, 34, 39, 40 and 42 and B, F, G and H. Compound B is methyl 4-amino-3-chloro-6-(4-cyclopropylphenyl)-5-fluoropicolinate; compound F is methyl 6-amino-2-(4-chloro-2-fluoro-3-methoxyphenyl)-5-methoxypyrimidine-4-carboxylate; compound G is methyl 4-amino-3-chloro-6-(4-chloro-2-fluoro-3-methoxyphenyl)picolinate; and compound H is methyl 4-amino-3-chloro-6-(4-chloro-2-fluoro-3-(1-fluoroethyl)phenyl)-5-fluoropicolinate. A weighed amount, determined by the highest rate to be tested, of each test compound was placed in a 25 mL glass vial and was dissolved in 8 mL of a 97:3 v/v mixture of acetone and DMSO to obtain concentrated stock solutions. […] The concentrated stock solutions obtained were diluted with 16 mL of an aqueous mixture containing acetone, water, isopropyl alcohol, DMSO, Agri-dex crop oil concentrate, and Triton® X-77 surfactant in a 64.7:26.0:6.7:2.0:0.7:0.01 v/v ratio to obtain spray solutions containing the highest application rates. Additional application rates were obtained by serial dilution of 12 mL of the high rate solution into a solution containing 4 mL of a 97:3 v/v mixture of acetone and DMSO and 8 mL of an aqueous mixture containing acetone, water, isopropyl alcohol, DMSO, Agri-dex crop oil concentrate, and Triton® X-77 surfactant in a 48.5:39.0:10.0:1.5:1.0:0.02 v/v ratio to obtain ½×, ¼×, ⅛× and 1/16× rates of the high rate. Compound requirements are based upon a 12 mL application volume at a rate of 187 L/ha. Formulated compounds were applied to the plant material with an overhead Mandel track sprayer equipped with 8002E nozzles calibrated to deliver 187 L/ha over an application area of 0.503 m^2 at a spray height of 18 inches (43 cm) above average plant canopy height. Control plants were sprayed in the same manner with the blank.
(§5) The treated plants and control plants were placed in a greenhouse as described above and watered by sub-irrigation to prevent wash-off of the test compounds. After 20-22 d, the condition of the test plants as compared with that of the untreated plants was determined visually and scored on a scale of 0 to 100 percent where 0 corresponds to no injury and 100 corresponds to complete kill.

Avena fatua (Oat, wild) = assay: as above; assay type: in vivo; details: wheat cropping systems, postemergence spray, 35 g ae/ha, 21 DAA
Description: as §3, §4, §5

[11] = test system: Lolium multiflorum (Ryegrass, Italian); assay: as above; assay type: in vivo; details: wheat cropping systems, postemergence spray, 17.5 g ae/ha, 21 DAA
Description: as §3, §4, §5

[12] = test system: Setaria viridis (Foxtail, green); assay: as above; assay type: in vivo; details: wheat cropping systems, postemergence spray, 17.5 g ae/ha, 21 DAA
Description: as §3, §4, §5

[13] = test system: Pennisetum glaucum (Foxtail, yellow); assay: as above; assay type: in vivo; details: wheat cropping systems, postemergence spray, 8.75 g ae/ha, 21 DAA
Description: as §3, §4, §5

[14] = test system: Brassica sinapis (Mustard, wild); assay: as above; assay type: in vivo; details: wheat cropping systems, postemergence spray, 8.75 g ae/ha, 21 DAA
Description: as §3, §4, §5

[15] = test system: Veronica persica (Speedwell, birdseye); assay: as above; assay type: in vivo; details: wheat cropping systems, postemergence spray, 8.75 g ae/ha, 21 DAA
Description: as §3, §4, §5

| Structure (SMILES) | melting point [°C] | pest or weed control at 35 g/ha [1] [%] | pest or weed control at 35 g/ha [2] [%] | pest or weed control at 17.5 g/ha [3] [%] | pest or weed control at 17.5 g/ha [4] [%] | Visual Injury (%) AESSE [5] [%] | Visual Injury (%) CYPES [6] [%] | Visual Injury (%) ECHCG [7] [%] | Visual Injury (%) SEBEX [8] [%] | Visual Injury (%) CYPIR [9] [%] | Visual Injury (%) MATCH [10] [%] | Visual Injury (%) AVEFA (Avena fatua (Oat, wild)) [%] | Visual Injury (%) LOLMU [11] [%] | Visual Injury (%) SETVI [12] [%] | Visual Injury (%) PESGL [13] [%] | Visual Injury (%) SINAR [14] [%] | Visual Injury (%) VERPE [15] [%] |
| --- | --- | --- | --- | --- | --- | --- | --- | --- | --- | --- | --- | --- | --- | --- | --- | --- | --- |
| CCOc1c(Cl)ccc(-c2nc(C(=O)OC)c(Cl)c(N)c2F)c1F [Compound A, methyl 4-amino-3-chloro-6-(4-chloro-3-ethoxy-2-fluorophenyl)-5-fluoropicolinate] | 170 to 172 | 60 | 40 | 50 | 20 | 0 | 60 | 60 | 20 | 80 |  |  |  |  |  |  |  |
| CCOc1c(Cl)ccc(-c2nc(C(=O)OCc3ccccc3)c(Cl)c(N)c2F)c1F [Compound 41, benzyl 4-amino-3-chloro-6-(4-chloro-3-ethoxy-2-fluorophenyl)-5-fluoropicolinate] | 122 to 124 | 100 | 95 | 95 | 90 | 100 | 100 | 95 | 99 | 100 |  |  |  |  |  |  |  |
| COc1c(N)nc(-c2ccc(Cl)c(OC)c2F)nc1C(=O)OCCc1ccccc1 [Compound 34] |  |  |  |  |  |  |  |  |  |  | 20 | 40 | 70 | 80 |  |  |  |
| COC(=O)c1nc(-c2ccc(Cl)c(C(C)F)c2F)c(F)c(N)c1Cl (stereo not drawn) [Compound H, methyl 4-amino-3-chloro-6-(4-chloro-2-fluoro-3-(1-fluoroethyl)phenyl)-5-fluoropicolinate, reference compound] |  |  |  |  |  |  |  |  |  |  |  |  |  |  | 0 | 87 | 80 |
| CC(F)c1c(Cl)ccc(-c2nc(C(=O)OCc3ccccc3)c(Cl)c(N)c2F)c1F (stereo not drawn) [Compound 40, benzyl 4-amino-3-chloro-6-(4-chloro-2-fluoro-3-(1-fluoroethyl)phenyl)-5-fluoropicolinate] |  |  |  |  |  |  |  |  |  |  |  |  |  |  | 65 | 98 | 95 |
